Legend:
MRSA (Staphylococcus) = experiment: Antimicrobial kill efficacy test on treated substrate (MRSA); format: cell-based; conditions: white cotton duvet, 60 C.-100 C., 1 hr
E. Coli (OD600 1.5) = experiment: Antimicrobial kill efficacy test on treated substrate (E. Coli); format: cell-based; conditions: 1 hr; for Efficacy test Pass: 20 C.
From the text: The 100000 ppm stock solution is subsequently diluted to the silver metal loading concentrations ranging from 3000 ppm down to 10 ppm, as shown in table 1 (the final usage concentration). The solutions are then applied onto a standard fabric substrate, such as white cotton textile and tested for various characteristics. The substrates, after being treated with the solution, are coated with standardized microbes, such as E. Coli or MRSA and tested for antimicrobial kill efficacy. The treated substrates are subjected to a wash test to determine if the silver metal still remains adhered to the fabric after multiple washes. For high silver metal ppm fabrics, it is easy to determine if the color of the stain fades or washes out over time. For low-ppm, non-stained items, the substrate is subjected to a digestion method to calculate the silver concentration per unit area after a number of washes to determine if the silver is remaining stable or is washing out.

[1] = 10 ppm silver metal loading, white cotton fabric
[2] = 20 ppm silver metal loading, white cotton fabric
[3] = 100 ppm silver metal loading, white cotton fabric
[4] = 500 ppm silver metal loading, white cotton fabric
[5] = 1000 ppm silver metal loading, white cotton fabric

Substance: [Cu(NH3)4(H2O)n]SO4 [Example 8]
- Efficacy test Pass (MRSA (Staphylococcus); 10 ppm zinc metal loading): No
- Efficacy test Pass (MRSA (Staphylococcus); 20 ppm zinc metal loading): Yes
- Efficacy test Pass (MRSA (Staphylococcus); 100 ppm zinc metal loading): Yes
- Efficacy test Pass (MRSA (Staphylococcus); 500 ppm zinc metal loading): Yes
- Efficacy test Pass (MRSA (Staphylococcus); 1000 ppm zinc metal loading): Yes

Substance: [Ag(NH3)2]-fluoride [Example 4]
- Efficacy test Pass (MRSA (Staphylococcus); 10 ppm copper metal loading): Yes
- Efficacy test Pass (MRSA (Staphylococcus); 20 ppm copper metal loading): Yes
- Efficacy test Pass (MRSA (Staphylococcus); 100 ppm copper metal loading): Yes
- Efficacy test Pass (MRSA (Staphylococcus); 500 ppm copper metal loading): Yes
- Efficacy test Pass (MRSA (Staphylococcus); 1000 ppm copper metal loading): Yes
- Efficacy test Pass (E. Coli (OD600 1.5); 10 ppm silver metal loading, white Coolmax polyester fabric): No
- Efficacy test Pass (E. Coli (OD600 1.5); 20 ppm silver metal loading, white Coolmax polyester fabric): Yes
- Efficacy test Pass (E. Coli (OD600 1.5); 100 ppm silver metal loading, white Coolmax polyester fabric): Yes
- Efficacy test Pass (E. Coli (OD600 1.5); 500 ppm silver metal loading, white Coolmax polyester fabric): Yes
- Efficacy test Pass (E. Coli (OD600 1.5); 1000 ppm silver metal loading, white Coolmax polyester fabric): Yes

Substance: [Ag(NH3)2]-formate [Example 6]
- Efficacy test Pass (E. Coli (OD600 1.5); 10 ppm silver metal loading, Substrate = Dark Coolmax polyester fabric / Hand (Example 6: on skin)): No
- Efficacy test Pass (E. Coli (OD600 1.5); 20 ppm silver metal loading, Substrate = Dark Coolmax polyester fabric / Hand (Example 6: on skin)): Yes
- Efficacy test Pass (E. Coli (OD600 1.5); 100 ppm silver metal loading, Substrate = Dark Coolmax polyester fabric / Hand (Example 6: on skin)): Yes
- Efficacy test Pass (E. Coli (OD600 1.5); 500 ppm silver metal loading, Substrate = Dark Coolmax polyester fabric / Hand (Example 6: on skin)): Yes
- Efficacy test Pass (E. Coli (OD600 1.5); 1000 ppm silver metal loading, Substrate = Dark Coolmax polyester fabric / Hand (Example 6: on skin)): Yes

Substance: [Ag(NH3)2]-carbonate [Example 1]
- Efficacy test Pass? (E. Coli (OD600 1.5); [1]): No
- Efficacy test Pass? (E. Coli (OD600 1.5); [2]): Yes
- Efficacy test Pass? (E. Coli (OD600 1.5); [3]): Yes
- Efficacy test Pass? (E. Coli (OD600 1.5); [4]): Yes
- Efficacy test Pass? (E. Coli (OD600 1.5); [5]): Yes

Substance: [Ag(NH3)2]-formate [Example 5]
- Efficacy test Pass (E. Coli (OD600 1.5); 10 ppm silver metal loading, dark Coolmax polyester fabric): No
- Efficacy test Pass (E. Coli (OD600 1.5); 20 ppm silver metal loading, dark Coolmax polyester fabric): Yes
- Efficacy test Pass (E. Coli (OD600 1.5); 100 ppm silver metal loading, dark Coolmax polyester fabric): Yes
- Efficacy test Pass (E. Coli (OD600 1.5); 500 ppm silver metal loading, dark Coolmax polyester fabric): Yes
- Efficacy test Pass (E. Coli (OD600 1.5); 1000 ppm silver metal loading, dark Coolmax polyester fabric): Yes

Substance: [Ag(NH3)2]-oxalate [Example 3]
- Efficacy test Pass (E. Coli (OD600 1.5); [1]): No
- Efficacy test Pass (E. Coli (OD600 1.5); [2]): Yes
- Efficacy test Pass (E. Coli (OD600 1.5); [3]): Yes
- Efficacy test Pass (E. Coli (OD600 1.5); [4]): Yes
- Efficacy test Pass (E. Coli (OD600 1.5); [5]): Yes

Reference: patent publication US20210329924A1, “METAL-BASED ANTIMICROBIAL COMPOSITION AND METHOD OF USING” (Microbonds Inc., priority 2020, published 2021)
